From ChEMBL document CHEMBL5154887, “Novel CRBN-Recruiting Proteolysis-Targeting Chimeras as Degraders of Stimulator of Interferon Genes with In Vivo Anti-Inflammatory Efficacy” (J Med Chem, 2022)
Calls of active or inactive are those of the source. The calls are words filed in the database; no cut-off is given here.

Assays:
[1] = target: T1, Protein cereblon/Stimulator of interferon genes protein (Homo sapiens, UniProt Q96SW2+Q86WV6); experiment: Protac activity at CRBN/STING in human THP-1 cells assessed as increase in STING degradation at 10 uM incubated for 48 hrs by Western blot analysis relative to control; assay type: cell-based
Target sequence in this assay (Q86WV6 whole entry, looked up): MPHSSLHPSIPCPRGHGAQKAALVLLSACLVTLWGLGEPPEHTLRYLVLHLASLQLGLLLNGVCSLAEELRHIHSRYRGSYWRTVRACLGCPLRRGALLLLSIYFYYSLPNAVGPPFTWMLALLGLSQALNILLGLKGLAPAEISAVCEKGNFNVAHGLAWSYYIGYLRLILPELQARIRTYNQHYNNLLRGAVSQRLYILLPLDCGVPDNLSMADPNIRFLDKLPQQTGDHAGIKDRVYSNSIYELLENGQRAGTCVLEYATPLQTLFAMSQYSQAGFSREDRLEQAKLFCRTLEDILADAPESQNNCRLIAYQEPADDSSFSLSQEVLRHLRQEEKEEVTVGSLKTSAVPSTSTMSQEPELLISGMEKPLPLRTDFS
Target sequence in this assay (Q96SW2 whole entry, looked up): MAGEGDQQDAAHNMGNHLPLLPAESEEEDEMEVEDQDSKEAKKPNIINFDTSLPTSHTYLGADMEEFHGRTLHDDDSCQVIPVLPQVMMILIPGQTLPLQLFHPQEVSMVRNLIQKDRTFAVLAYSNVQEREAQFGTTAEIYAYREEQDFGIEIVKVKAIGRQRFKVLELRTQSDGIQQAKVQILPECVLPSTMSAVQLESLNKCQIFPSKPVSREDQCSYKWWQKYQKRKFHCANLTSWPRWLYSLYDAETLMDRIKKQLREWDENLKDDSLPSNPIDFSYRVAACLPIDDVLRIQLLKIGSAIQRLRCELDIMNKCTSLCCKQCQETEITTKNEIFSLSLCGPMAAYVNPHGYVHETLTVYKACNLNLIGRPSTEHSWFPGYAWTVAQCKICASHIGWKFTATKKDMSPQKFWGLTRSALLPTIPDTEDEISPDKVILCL

[2] = Apparent volume of distribution in Sprague-Dawley rat at 20 mg/kg, po measured upto 48 hrs by UPLC-triple quadrupole MS analysis; assay type: ADME, organism-based; settings: in vivo
[3] = Toxicity in cisplatin-induced acute kidney injury in C57BL/6J mouse model assessed as marked inflammatory cell exudation in kidney at 30 to 60 mg/kg, ip pretreated for 1 hr followed by cisplatin administration and measured after 72 hrs by H and E staining based analysis; assay type: organism-based; settings: in vivo, 73 h, dose 30-60 mg/kg
[4] = Renal toxicity in C57BL/6J mouse assessed as reduction in BUN level at 30 mg/kg, ip (Rvb= 8.9 mmol/L); assay type: organism-based; settings: in vivo
[5] = MRT (0 to infinity) in Sprague-Dawley rat at 2 mg/kg, iv measured upto 48 hrs by UPLC-triple quadrupole MS analysis; assay type: ADME, organism-based; settings: in vivo
[6] = Tmax in Sprague-Dawley rat at 20 mg/kg, po measured upto 48 hrs by UPLC-triple quadrupole MS analysis; assay type: ADME, organism-based; settings: in vivo
[7] = MRT (0 to t) in Sprague-Dawley rat at 2 mg/kg, iv measured upto 48 hrs by UPLC-triple quadrupole MS analysis; assay type: ADME, organism-based; settings: in vivo
[8] = Half life in Sprague-Dawley rat at 2 mg/kg, iv measured upto 48 hrs by UPLC-triple quadrupole MS analysis; assay type: ADME, organism-based; settings: in vivo
[9] = Oral bioavailability in Sprague-Dawley rat at 20 mg/kg measured upto 48 hrs by UPLC-triple quadrupole MS analysis; assay type: ADME, organism-based; settings: in vivo
[10] = MRT (0 to t) in Sprague-Dawley rat at 20 mg/kg, po measured upto 48 hrs by UPLC-triple quadrupole MS analysis; assay type: ADME, organism-based; settings: in vivo
[11] = Toxicity in cisplatin-induced acute kidney injury in C57BL/6J mouse model assessed as vacuole like changes in kidney at 30 to 60 mg/kg, ip pretreated for 1 hr followed by cisplatin administration and measured after 72 hrs by H and E staining based analysis; assay type: organism-based; settings: in vivo, 73 h, dose 30-60 mg/kg
[12] = AUC (0 to infinity) in Sprague-Dawley rat at 20 mg/kg, po measured upto 48 hrs by UPLC-triple quadrupole MS analysis; assay type: ADME, organism-based; parameters: dose 20 mg/kg, time < 48 hrs, route po; settings: in vivo
[13] = Toxicity in cisplatin-induced acute kidney injury in C57BL/6J mouse model assessed as illegible tubular structure in kidney at 30 to 60 mg/kg, ip pretreated for 1 hr followed by cisplatin administration and measured after 72 hrs by H and E staining based analysis; assay type: organism-based; settings: in vivo, 73 h, dose 30-60 mg/kg
[14] = Cmax in Sprague-Dawley rat at 2 mg/kg, iv measured upto 48 hrs by UPLC-triple quadrupole MS analysis; assay type: ADME, organism-based; parameters: dose 2 mg/kg, time < 48 hrs, route iv; settings: in vivo
[15] = Toxicity in C57BL/6J mouse assessed as body weight loss at 60 mg/kg, ip measured after 4 days relative to control; assay type: organism-based; settings: in vivo, 96 h, time 4 day
[16] = Renal toxicity in C57BL/6J mouse assessed as reduction in BUN level at 60 mg/kg, ip (Rvb= 8.9 mmol/L); assay type: organism-based; settings: in vivo
Mus musculus [17] = experiment: Renal protective activity against cisplatin-induced acute kidney injury in C57BL/6J mouse model assessed as clear cortical medullary demarcation at 60 mg/kg, ip by NMR based analysis; assay type: functional, organism-based
Mus musculus [18] = experiment: Renal protective activity against cisplatin-induced acute kidney injury in C57BL/6J mouse model assessed as reduction in kidney swelling at 60 mg/kg, ip by NMR based analysis; assay type: functional, organism-based
[19] = Toxicity in cisplatin-induced acute kidney injury in C57BL/6J mouse model assessed as morphological abnormalities in liver at 30 to 60 mg/kg, ip pretreated for 1 hr followed by cisplatin administration and measured after 72 hrs by H and E staining based analysis; assay type: organism-based; settings: in vivo, 73 h, dose 30-60 mg/kg
THP-1 [20] = experiment: Inhibition of cGAS-STING signalling pathway in human THP-1 cells assessed as downregulation of cGAMP-triggered IFN-beta expression preincubated for 2 hrs followed by cGAMP stimulation and measured after 24 hrs by ELISA; assay type: cell-based; settings: dose 2.5-20 µM, time 26.0 hrs, DDE = dose-dependent effect
[21] = target: T1, Protein cereblon/Stimulator of interferon genes protein; experiment: Protac activity at CRBN/STING in human THP-1 cells assessed as increase in STING degradation incubated for 48 hrs by Western blot analysis; assay type: cell-based
Target sequence in this assay (Q96SW2 whole entry): as the sequence (Q96SW2 whole entry, looked up) above
Target sequence in this assay (Q86WV6 whole entry): as the sequence (Q86WV6 whole entry, looked up) above

[22] = Apparent volume of distribution in Sprague-Dawley rat at 2 mg/kg, iv measured upto 48 hrs by UPLC-triple quadrupole MS analysis; assay type: ADME, organism-based; settings: in vivo, read-out: Vz
[23] = target: T1, Protein cereblon/Stimulator of interferon genes protein; experiment: Protac activity at CRBN/STING in human THP-1 cells assessed as increase in STING degradation at 10 uM measured after 4 to 48 hrs by Western blot analysis; assay type: cell-based; settings: time 4-48 hrs, TDE = time-dependent effect
Target sequence in this assay (Q86WV6 whole entry, looked up): as above
Target sequence in this assay (Q96SW2 whole entry, looked up): as the sequence (Q96SW2 whole entry, looked up) above

[24] = Clearance in Sprague-Dawley rat at 2 mg/kg, iv measured upto 48 hrs by UPLC-triple quadrupole MS analysis; assay type: ADME, organism-based; settings: in vivo
[25] = In vivo inhibition of STING signalling pathway in cisplatin-induced acute kidney injury in C57BL/6J mouse model assessed as reduction in STING protein expression in kidney at 30 mg/kg, ip pretreated for 1 hr followed by cisplatin administration and measured after 72 hrs by Western blot analysis (Rvb= 375%); assay type: functional; parameters: scale not given: the % may be the effect or the level left; settings: time 73 hrs
Mus musculus [26] = experiment: Renal protective activity against cisplatin-induced acute kidney injury in C57BL/6J mouse model assessed as reduction in abnormal signal intensities of T2 at 60 mg/kg, ip by NMR based analysis; assay type: functional, organism-based
[27] = Toxicity in C57BL/6J mouse model of cisplatin-induced acute kidney injury assessed as survival rate at 60 mg/kg, ip pretreated for 1 hr followed by cisplatin administration and measured after 72 hrs relative to control; assay type: organism-based; settings: in vivo, 73 h
[28] = Clearance in Sprague-Dawley rat at 20 mg/kg, po measured upto 48 hrs by UPLC-triple quadrupole MS analysis; assay type: ADME, organism-based; settings: in vivo
[29] = AUC (0 to infinity) in Sprague-Dawley rat at 2 mg/kg, iv measured upto 48 hrs by UPLC-triple quadrupole MS analysis; assay type: ADME, organism-based; parameters: time < 48 hrs, dose 2 mg/kg, route iv; settings: in vivo
THP-1 [30] = experiment: Inhibition of cGAS-STING signalling pathway in human THP-1 cells assessed as downregulation of cGAMP-triggered CXCL10 expression preincubated for 2 hrs followed by cGAMP stimulation and measured after 24 hrs by ELISA; assay type: cell-based; settings: dose 2.5-20 µM, time 26.0 hrs, DDE = dose-dependent effect

With O=C(/C=C/C(=O)Nc1ccc(NC(=O)c2ccc([N+](=O)[O-])o2)cc1)NCCCCCCNc1cccc2c1C(=O)N(C1CCC(=O)NC1=O)C2=O (stereo not given) the Activity [1] was 76%, the Vz [2] was 4480.43 L/kg and the Activity [3] was “Non-Toxic”. For the same compound, the Activity [4] was 27.2 mmol/L, the MRT inf [5] was 1.95 h and the Tmax [6] was 3.71 h. The MRT last at 48 h [7] was 1.74 h, the half-life [8] was 3.86 h and the bioavailability [9] was 2.15%. For the same compound, the MRT last at 48 h [10] was 7.6 h, the Activity [11] was “Non-Toxic” and the AUC(0-inf) [12] was 55.7 ng·h/mL. The Activity [13] was “Non-Toxic”, the Cmax [14] was 318 ng/mL and the Activity [15] was 9%. The Activity [16] was 16.3 mmol/L, the Activity (Mus musculus [17]) was “Active” and the Activity (Mus musculus [18]) was “Active”. The Activity [19] was “Non-Toxic”, the Activity (THP-1 [20]) was “Dde” and the DC50 [21] was 3.2 µM. The Vd [22] was 38 L/kg, the Activity [23] was “Tde” and the clearance [24] was 6.8 L/h/kg. For the same compound, the Activity [25] was 150%, the Activity (Mus musculus [26]) was “Active” and the Survival [27] was 100%. The CL/F [28] was 429 L/h/kg, the AUC(0-inf) [29] was 259 ng·h/mL and the Activity (THP-1 [30]) was “Dde”.
